{"source": "patent US5939437A", "about": "“CCK and gastrin receptor ligands” (James Black Foundation Limited, priority 1994, dated 1999)", "key": {"[1]": {"biological_target": "T1, CCKB (Mus musculus, UniProt P56481)", "T1 construct": "The cortex was dissected, weighed and homogenised in 40 ml ice-cold buffer; from tissue; host or cells: cerebral cortex membranes of male CD1 mice (Charles River)", "T1 sequence (P56481 1-453)": "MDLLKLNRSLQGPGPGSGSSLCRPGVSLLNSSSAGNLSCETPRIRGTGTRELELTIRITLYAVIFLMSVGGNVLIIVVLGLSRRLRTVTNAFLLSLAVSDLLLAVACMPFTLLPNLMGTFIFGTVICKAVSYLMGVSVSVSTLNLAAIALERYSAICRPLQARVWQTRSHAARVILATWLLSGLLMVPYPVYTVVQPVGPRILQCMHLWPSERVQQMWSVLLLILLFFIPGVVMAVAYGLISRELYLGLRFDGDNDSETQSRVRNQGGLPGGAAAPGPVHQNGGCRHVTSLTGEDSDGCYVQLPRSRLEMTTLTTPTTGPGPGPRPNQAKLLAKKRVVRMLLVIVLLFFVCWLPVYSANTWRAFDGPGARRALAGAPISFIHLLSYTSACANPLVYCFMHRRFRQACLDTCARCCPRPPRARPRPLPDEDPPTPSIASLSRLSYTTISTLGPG", "assay": "radioligand binding assay at the CCKB (CCK8 [sic]) receptor in mouse cortical membranes", "conditions": "[125I]-CCK8S 200 pM, 150 min at 21±3° C.; for Ki: read-out: CCKB pKi (converted)", "procedure": "The compounds of the examples were tested for binding at the CCK8 receptor in mouse cortical membranes by means of a radioligand binding assay. The procedure was as follows: The whole brains from male mice (CD1 22-25 g; Charles River) were removed and placed in ice-cold buffer (pH7.2@21±3° C.) of the following composition (mM); 10 HEPES, 130 NaCl, 4.7 KCl, 5 MgCl2, 1 EDTA and containing 0.25 g.1^-1 bacitracin. The cortex was dissected, weighed and homogenised in 40 ml ice-cold buffer using a Teflon-in-glass homogeniser. The homogenate was centrifuged at 39,800 g for 20 min at 4° C., the supernatant discarded and the pellet resuspended by homogenisation in fresh buffer. The homogenate was recentrifuged (39,800 g; 20 min@4° C.) and the final pellet was resuspended in HEPES buffer to give a tissue concentration of 2 mg.ml^-1 (original wet weight). The membranes ([…]) were incubated for 150 min at 21±3° C. in a final volume of 0.5 ml with HEPES buffer containing [^25 I]-CCK8S (0.05 ml; 200 pM NEN 2200 Ci.mmol^-1) and competing compound. Total and non-specific binding of [^125 I]-CCK8S were defined using 0.05 ml of buffer and 0.05 ml of […] L-365,260, respectively. The assay was terminated by rapid filtration through pre-soaked Whatman GF/B 35 filters using a Brandell Cell harvester. The filters were washed (3×3 ml) with ice-cold 5 mM Tris-HCl (pH7.4@4° C.) and bound radioactivity determined by counting (1 min.) in a gamma-counter."}, "[2]": {"biological_target": "T2, Gastrin (Rattus norvegicus, UniProt P30553)", "T2 construct": "The stomach was excised and flushed with ca. 1 ml unbuffered physiological saline solution; from tissue; host or cells: isolated whole stomach of immature rats (33-50 g, ca. 21 days old)", "T2 sequence (P30553 1-452)": "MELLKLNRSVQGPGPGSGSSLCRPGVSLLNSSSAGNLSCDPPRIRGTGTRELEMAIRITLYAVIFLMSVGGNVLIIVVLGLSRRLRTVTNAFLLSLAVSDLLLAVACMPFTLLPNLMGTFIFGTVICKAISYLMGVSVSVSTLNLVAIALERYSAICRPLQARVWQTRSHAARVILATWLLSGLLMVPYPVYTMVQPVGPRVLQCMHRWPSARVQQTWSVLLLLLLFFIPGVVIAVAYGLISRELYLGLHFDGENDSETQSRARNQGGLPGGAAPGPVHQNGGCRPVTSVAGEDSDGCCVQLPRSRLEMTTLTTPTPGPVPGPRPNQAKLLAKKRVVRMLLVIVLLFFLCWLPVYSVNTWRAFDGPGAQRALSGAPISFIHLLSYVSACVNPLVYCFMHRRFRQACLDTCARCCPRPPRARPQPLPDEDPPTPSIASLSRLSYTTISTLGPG", "assay": "gastrin antagonist activity in an immature rat stomach assay (pentagastrin-stimulated acid secretion, isolated stomach)", "conditions": "cumulative pentagastrin dose-response curves, 60 min after drug; for Kb: read-out: Gastrin pKB (converted)", "procedure": "The compounds of the examples were also tested for gastrin antagonist activity in an immature rat stomach assay. The procedure was follows:\nThe oesophagus of immature rats (33-50 g, ca. 21 days old) was ligated at the level of the cardiac sphincter and the duodenal sphincter was cannulated. The stomach was excised and flushed with ca. 1 ml unbuffered physiological saline solution. The fundus was punctured and cannulated. A further 4-5 ml of unbuffered solution was flushed through the stomach to ensure the preparation was not leaking. The stomach was lowered into a jacketed organ bath containing 40 ml of buffered solution containing 3×10^-8 M5methylfurmethide, maintained at 37° and gassed vigorously with 95% O2 /5% CO2. The stomach was continuously perfused at a rate of 1 ml min^-1 with unbuffered solution gassed with 100% O2 with the perfusate passing over an internally referenced pH-electrode fixed 12 cm above the stomach.\nAfter 120 min of stabilisation the drugs were added directly to the serosal solution in the organ bath and after a further 60 min cumulative pentagastrin dose-response curves were started. Changes in acid secretion were monitored and the curves analysed according to Black et. al., Br. J. Pharmacol., 1985, 86, 581."}, "[3]": {"biological_target": "T3, CCKA (Cavia porcellus, UniProt Q63931)", "T3 construct": "The pancreatata were homogenised in 40 ml ice-cold HEPES buffer; from tissue; host or cells: pancreas membranes of male Dunkin Hartley guinea-pigs", "T3 sequence (Q63931 1-430)": "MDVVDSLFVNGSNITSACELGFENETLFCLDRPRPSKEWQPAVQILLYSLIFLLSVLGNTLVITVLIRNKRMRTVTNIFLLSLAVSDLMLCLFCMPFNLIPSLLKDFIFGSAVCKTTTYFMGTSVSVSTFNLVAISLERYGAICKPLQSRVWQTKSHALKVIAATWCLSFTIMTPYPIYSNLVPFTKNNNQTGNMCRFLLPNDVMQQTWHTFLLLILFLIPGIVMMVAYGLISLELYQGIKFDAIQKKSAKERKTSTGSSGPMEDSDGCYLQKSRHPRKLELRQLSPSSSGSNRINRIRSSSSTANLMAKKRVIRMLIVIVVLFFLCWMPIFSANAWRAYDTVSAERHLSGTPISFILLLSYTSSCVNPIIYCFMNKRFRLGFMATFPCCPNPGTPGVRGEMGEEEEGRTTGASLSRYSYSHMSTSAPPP", "assay": "CCKA binding assay (guinea-pig pancreas membranes)", "conditions": "[125I]-CCK8(S) 200 pM, 0.375 μM PD134,308 present, 150 minutes at 21±3° C.; for Ki: read-out: CCKA pKi (converted)", "procedure": "The compounds of the examples were also tested in a CCKA binding assay as follows:\nThe pancreatata were removed from male guinea-pigs (200-300 g; Dunkin Hartley) and placed in ice-cold HEPES buffer (pH 7.2@21 ±3° C.). The pancreatata were homogenised in 40 ml ice-cold HEPES buffer using a polytron (Brinkman, PT10, setting 10) 4×1 second. The homogenate was centrifuged at 39,800 g for 15 min at 4° C. The supernatant was discarded and the pellet re-suspended using a Teflon-in-glass homogeniser in 20 volumes of fresh buffer and re-centrifuged as above. The final pellet was re-suspended using a Teflon-in-glass homogeniser to a tissue concentration of 1 mg.ml^-1 (original wet weight), and filtered through 500 μm pore-size Nytex mesh.\nThe membranes (400 μl; containing 0.375 μM PD134,308) are incubated for 150 minutes at 21±3° C. in a final volume of 0.5 ml with HEPES buffer containing [^125 I]-CCK8 (S) (50 μl; 200 pM) and competing compound. Total and non-specific binding of [^125 I]-CCK^8 (S) are defined using 50 μl of buffer and 50 μl of 100 nM L-364,718respectively. The assay is terminated by rapid filtration through pre-soaked Whatman GF/B filters using a Brandell Cell Harvester. The filters were washed (3×3 ml) with ice-cold 50 mM Tris HCl (pH 7.4 at 4° C. and bound radioactivity is determined by counting (1 min) in a gamma counter."}}}
{"smiles": "O=C(O)c1cc(NC(=O)[C@H](Cc2ccccc2)NC(=O)c2ccccc2C(=O)NCC23CC4CC(CC(C4)C2)C3)cc(C(=O)O)c1", "note": "[Example 1, (1S-(3,5-dicarboxyphenylaminocarbonyl)-2-phenylethylaminocarbonyl)-2-(1-adamantanemethylaminocarbonyl)-benzene]", "values": [{"measurement": "Ki", "setting": "[1]", "value": 79.4, "unit": "nM"}, {"measurement": "Kb", "setting": "[2]", "value": 3.98, "unit": "nM"}, {"measurement": "CCKA pKi", "setting": "[3]", "value": 5.5}]}
{"smiles": "O=C(O)c1cc(NC(=O)[C@H](Cc2ccc(O)cc2)NC(=O)c2ccccc2C(=O)NCC23CC4CC(CC(C4)C2)C3)cc(C(=O)O)c1", "note": "[Example 2, (1S-(3,5-dicarboxyphenylaminocarbonyl)-2-(4-hydroxyphenyl)-ethylaminocarbonyl)-2-(1-adamantanemethyl-aminocarbonyl)-benzene]", "values": [{"measurement": "Ki", "setting": "[1]", "value": 1260, "unit": "nM"}, {"measurement": "Kb", "setting": "[2]", "value": 25.1, "unit": "nM"}, {"measurement": "Ki", "setting": "[3]", "value": 1580, "unit": "nM"}]}
{"smiles": "O=C(O)c1cc(NC(=O)[C@@H](Cc2ccccc2)NC(=O)c2ccccc2C(=O)NCC23CC4CC(CC(C4)C2)C3)cc(C(=O)O)c1", "note": "[Example 3, (1R-(3,5-dicarboxyphenylaminocarbonyl)-2-phenylethylaminocarbonyl)-2-(1-adamantanemethylaminocarbonyl)-benzene]", "values": [{"measurement": "Ki", "setting": "[1]", "value": 398, "unit": "nM"}, {"measurement": "Kb", "setting": "[2]", "value": 15.8, "unit": "nM"}, {"measurement": "Ki", "setting": "[3]", "value": 7940, "unit": "nM"}]}
{"smiles": "O=C(O)c1cc(NC(=O)[C@H](Cc2ccccc2F)NC(=O)c2ccccc2C(=O)NCC23CC4CC(CC(C4)C2)C3)cc(C(=O)O)c1", "note": "[Example 4]", "values": [{"measurement": "CCKB pKi", "setting": "[1]", "value": 7.0}, {"measurement": "Gastrin pKB", "setting": "[2]", "value": 7.7}, {"measurement": "CCKA pKi", "setting": "[3]", "value": 5.3}]}
{"smiles": "O=C(O)c1cc(NC(=O)[C@H](Cc2ccccc2)NC(=O)c2ccccc2C(=O)NCc2ccc3ccccc3c2)cc(C(=O)O)c1", "note": "[Example 6, (1R-(3,5-dicarboxyphenylaminocarbonyl)-2-phenylethylaminocarbonyl)-2-(2-naphthalenemethylaminocarbonyl)-benzene]", "values": [{"measurement": "CCKB pKi", "setting": "[1]", "value": 6.3}, {"measurement": "Gastrin pKB", "setting": "[2]", "value": 6.1}, {"measurement": "CCKA pKi", "setting": "[3]", "value": 6.3}]}
{"smiles": "O=C(O)c1cc(NC(=O)[C@H](Cc2ccccc2)NC(=O)c2ccccc2C(=O)NCC2CCCCCC2)cc(C(=O)O)c1", "note": "[Example 7, (1R-(3,5-dicarboxyphenylaminocarbonyl)-2-phenylethylaminocarbonyl)-2-(cycloheptanemethylaminocarbonyl)-benzene]", "values": [{"measurement": "CCKB pKi", "setting": "[1]", "value": 6.5}, {"measurement": "Gastrin pKB", "setting": "[2]", "value": 6.3}, {"measurement": "CCKA pKi", "setting": "[3]", "value": 5.9}]}
{"smiles": "O=C(O)c1cc(NC(=O)[C@H](Cc2ccccc2)NC(=O)c2ncccc2C(=O)NCC23CC4CC(CC(C4)C2)C3)cc(C(=O)O)c1", "note": "[Example 10, 2-(1S-(3,5-dicarboxyphenylamino-carbonyl)-2-phenylethylaminocarbonyl)-3-(1-adamantanemethylamino-carbonyl)pyridine]", "values": [{"measurement": "Ki", "setting": "[1]", "value": 794, "unit": "nM"}, {"measurement": "Kb", "setting": "[2]", "value": 39.8, "unit": "nM"}, {"measurement": "Ki", "setting": "[3]", "value": 2000, "unit": "nM"}]}
{"smiles": "O=C(O)c1cc(NC(=O)[C@H](Cc2ccccc2)NC(=O)c2cocc2C(=O)NCC23CC4CC(CC(C4)C2)C3)cc(C(=O)O)c1", "note": "[Example 12, 3-(1S-(3,5-dicarboxyphenylamino-carbonyl)-2-phenylethylaminocarbonyl)-4-(1-adamantanemethyl-aminocarbonyl)furan]", "values": [{"measurement": "CCKB pKi", "setting": "[1]", "value": 6.3}, {"measurement": "Gastrin pKB", "setting": "[2]", "value": 6.5}, {"measurement": "CCKA pKi", "setting": "[3]", "value": 5.2}]}
{"smiles": "O=C(O)c1cc(NC(=O)[C@H](Cc2ccccc2)NC(=O)c2c[nH]cc2C(=O)NCC23CC4CC(CC(C4)C2)C3)cc(C(=O)O)c1", "note": "[Example 13, 3-(1S-(3,5-dicarboxyphenylamino-carbonyl)-2-phenylethylaminocarbonyl)-4-(1-adamantanemethylamino-carbonyl)pyrrole]", "values": [{"measurement": "Ki", "setting": "[1]", "value": 63.1, "unit": "nM"}, {"measurement": "Kb", "setting": "[2]", "value": 25.1, "unit": "nM"}, {"measurement": "Ki", "setting": "[3]", "value": 2000, "unit": "nM"}]}
{"smiles": "O=C(O)c1cc(NC(=O)[C@H](Cc2ccccc2)NC(=O)c2ccc([N+](=O)[O-])cc2C(=O)NCC23CC4CC(CC(C4)C2)C3)cc(C(=O)O)c1", "note": "[Example 14, 1-(1S-(3,5-dicarboxyphenylamino-carbonyl)-2-phenylethylaminocarbonyl)-2-(1-adamantanemethyl-aminocarbonyl)-4-nitrobenzene]", "values": [{"measurement": "Ki", "setting": "[1]", "value": 501, "unit": "nM"}, {"measurement": "Kb", "setting": "[2]", "value": 100, "unit": "nM"}, {"measurement": "Ki", "setting": "[3]", "value": 3160, "unit": "nM"}]}
